Data from patent publication US20250042961A1, “P53 PEPTIDOMIMETIC MACROCYCLES” (MERCK SHARP & DOHME LLC, priority 2021, published 2025).
Converted amounts (≈) assume the structure as drawn. Where two headings read alike, the source gives them in different places. *1 amine or outer side, *2 acyl side, *3 side chain or, on linkers, in order; H or OH if unused. Where a SMILES comes first, the peptide text is derived from it. Bridges are numbered along the chain shown (N, C = ends). [ ]: non-standard residue; d: D form. ξ: configuration not given here. ξαMeNle(6-ylidene) = CC(CCCC=[*:3])(N[*:1])C(=O)[*:2]; dPhe(4-CF3) = N[C@H](Cc1ccc(C(F)(F)F)cc1)C(=O)O; dTrp(6-F) = N[C@H](Cc1c[nH]c2cc(F)ccc12)C(=O)O

Tests used:
HCT116 cells = format: cell-based; conditions: serum condition not stated; read-out: LDH-release EC50
Description: HCT116 cells were stably transfected with a p53 responsive β-lactamase reporter and expanded in McCoy's 5A Medium with 10% fetal bovine serum (FBS), Blasticidin, and Penicillin/Streptomycin and then transferred to 1.5 mL freezing vials and stored under liquid nitrogen in growth media containing 5% DMSO. One day prior the assay, a vial of banked cells was recovered in a cell culture flask and incubated for 24 hours, followed by removal of cell growth media and replacement with Opti-MEM containing 2% FBS. The cells were then seeded into a 384-well plate at a density of 8000 cells per well. […] The final working concentration of DMSO was 0.5%. Lactate dehydrogenase release was detected using the CytoTox-ONE Homogenous Membrane Integrity Assay Kit (Promega), as per the manufacturer's instructions. Measurements were carried out using the Tecan plate reader. Maximum LDH release was defined as the amount of LDH released as induced by the lytic peptide (iDNA79) and used to normalize the results. Measurements were taken a minimum of three times (biological replicates) and values are reported as geometric means of the replicates.

HCT116 = format: cell-based; conditions: for EC50: 72 h; for HCT116 proliferation % Max: 72 hours, 10% serum
Text: (§1) To further establish the impact of the above modification in making cleaner “drug” like compounds, we profiled a set of compounds of the invention in cellular proliferation assays (Table 3).

p53 null Ca Ski = format: cell-based; conditions: 72 h
Text: as §1

MDM2 (1-125) = target: T1, MDM2 (1-125) (Homo sapiens, UniProt Q00987); assay: Competitive fluorescence anisotropy assay (FP Kd MDM2); format: binding
T1 construct: GST (N); His6 (N); TEV cleavage site ENLYFQG (N); made in house; host or cells: Escherichia coli BL21 (DE3) Rosetta T1R
Text: For use in the peptide binding assay, a human MDM2 1-125 sequence was cloned into a pNIC-GST vector. The TEV (tobacco etch virus) cleavage site was changed from ENLYFQS (SEQ ID NO: 13) to ENLYFQG (SEQ ID NO: 14) to give a fusion protein with the following sequence:
[P] is the protein concentration (MDM2), [L] is the labeled peptide concentration, r is the anisotropy measured, r0 is the anisotropy of the free peptide, rb is the anisotropy of the MDM2-FAM-labeled peptide complex, Kd is the dissociation constant, [L]t is the total FAM labeled peptide concentration, and [P]t is the total MDM2 concentration. […] These values were then used to determine apparent Kd values of the respective competing ligands in subsequent competition assays in fluorescence anisotropy experiments. MDM2 and MDM4 competition experiments were performed with their respective concentrations held constant at 250 nM and 75 nM, in the presence of 50 nM of FAM-labeled 12/1. The competing molecules were then titrated against the complex of the FAM-labeled peptide and protein. Apparent Kd values were determined by fitting the experimental data to the equations shown below:
[L]st and [L]t denote labeled ligand and total unlabeled ligand input concentrations, respectively. Kd2 is the dissociation constant of the interaction between the unlabeled ligand and the protein.
In all competition experiments, it is assumed that [P]t>[L]st, otherwise considerable amounts of free labeled ligand would always be present and would interfere with measurements. Kd1 is the apparent Kd for the labeled peptide used and has been experimentally determined as described in the previous paragraph. The FAM-labeled peptide was dissolved in dimethyl sulfoxide (DMSO) at 1 mM and diluted into experimental buffer. Readings were carried out with an Envision Multilabel Reader (PerkinElmer). Experiments were carried out in PBS (2.7 mM KCl, 137 mM NaCl, 10 mM Na2HPO4 and 2 mM KH2PO4 (pH 7.4)) and 0.1% Tween-20 buffer. All titrations were carried out in triplicate. Curve-fitting was carried out using Prism 4.0 (GraphPad®). […] Negative control titrations of the ligands under investigation were also carried out with the fluorescently labeled peptide (in the absence of MDM2) to ensure no interactions were occurring between the ligands and the FAM-labeled peptide. […] Measurements were taken a minimum of three times (biological replicates) and values are reported as geometric means of the replicates.

[1] = system: Jump-In T-REx CHO-K1 BLA cells; assay: Tetracycline beta-lactamase reporter gene cellular assay (counterscreen); format: cell-based
Description: This assay was based on Jump-In™ T-REx™ CHO-K1 BLA cells containing a stably integrated β-lactamase under the control of an inducible cytomegalovirus (CMV) promoter. Cells were maintained in Dulbecco's Minimal Eagle Medium (DMEM) with 10% fetal bovine serum (FBS), Blasticidin, and Penicillin/Streptomycin and then transferred to 1.5 mL freezing vials and stored under liquid nitrogen in growth media containing 5% DMSO. […] Cells were seeded into a 384-well plate at a density of 4000 cells per well. […] The final working concentration of DMSO was 0.5%. β-lactamase activity was detected using the ToxBLAzer Dual Screen (Invitrogen), as per the manufacturer's instructions. Measurements were carried out using the Envision multiplate reader (PerkinElmer). Counterscreen activity was defined as the amount of β-lactamase activity induced by tetracycline. Measurements were taken a minimum of three times (biological replicates) and values are reported as geometric means of the replicates.

[2] = system: p53 responsive β-lactamase reporter in HCT116 cells; assay: p53 beta-lactamase reporter gene cellular functional assay; format: cell-based
Description: HCT116 cells were stably transfected with a p53 responsive β-lactamase reporter and expanded in McCoy's 5A Medium with 10% fetal bovine serum (FBS), Blasticidin, and Penicillin/Streptomycin and then transferred to 1.5 mL freezing vials and stored under liquid nitrogen in growth media containing 5% DMSO. […] The cells were then seeded into a 384-well plate at a density of 8000 cells per well. […] The final working concentration of DMSO was 0.5%. β-lactamase activity was detected using the ToxBLAzer Dual Screen (Invitrogen), as per the manufacturer's instructions. Measurements were made using the Envision multiplate reader (PerkinElmer). […] Measurements were taken a minimum of three times (biological replicates) and values are reported as geometric means of the replicates.

[3] = read-out: Counter screen EC50 (0% FBS, 4 h), 0% FBS, 4 h
[4] = read-out: Counter screen EC50 (10% FBS, 16 h), 10% FBS, 16 h
[5] = read-out: p53 activity EC50 (0% FBS, 4 h), 0% FBS, 4 h
[6] = read-out: p53 activity EC50 (10% FBS, 16 h), 10% FBS, 16 h

T1 sequence (Q00987 with tags, fused parts or gaps): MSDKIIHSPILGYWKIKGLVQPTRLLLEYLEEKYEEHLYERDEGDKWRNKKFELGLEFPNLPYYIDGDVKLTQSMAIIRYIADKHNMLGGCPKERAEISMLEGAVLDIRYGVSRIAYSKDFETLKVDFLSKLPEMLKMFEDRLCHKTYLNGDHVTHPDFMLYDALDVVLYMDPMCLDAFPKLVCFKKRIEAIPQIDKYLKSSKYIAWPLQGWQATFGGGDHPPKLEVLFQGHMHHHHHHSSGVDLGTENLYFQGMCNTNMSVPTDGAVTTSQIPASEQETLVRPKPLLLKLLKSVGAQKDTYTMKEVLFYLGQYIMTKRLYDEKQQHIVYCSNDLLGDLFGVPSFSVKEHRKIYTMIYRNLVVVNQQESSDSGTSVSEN

Row | SMILES | EC50 (HCT116 cells) | EC50 (HCT116) | HCT116 proliferation % Max (HCT116) | EC50 (p53 null Ca Ski) | Kd (MDM2 (1-125)) | EC50 [1, 3] | EC50 [1, 4] | EC50 ([1]; serum condition not stated, read-out: counterscreen EC50) | improvement of p53 reporter gene functional cellular activity ([2]; 0% serum, versus compound 1) | EC50 [2, 5] | EC50 [2, 6] | solubility (Solubility (PBS, pH 7)) | improvement of cell efficacy in HCT116 proliferation versus compound 2 (HCT116) | p53 null Ca Ski proliferation % Max (inhibition at maximum concentration) (p53 null Ca Ski) | overall improvement of cellular activity compared to parent peptide ([2]; 10% serum) | EC50 ([2]; read-out: p53 activity EC50 (10% FBS, 16 h), 10% FBS, 16 h, listed as compound 4)
1 | CC(=O)N[C@@H](C(=O)N[C@H](C)C(=O)N[C@H](Cc1c[nH]c2cc(F)ccc12)C(=O)N[C@H](Cc1ccc(O)cc1)C(=O)N[C@H](C)C(=O)NC1(C)CCC/C=C\CCCC(C)(C(=O)N[C@H](CC(C)C)C(=O)N[C@H](CO)C(N)=O)NC(=O)[C@@H](CCC(N)=O)NC(=O)[C@@H](CCC(=O)O)NC(=O)[C@@H](Cc2ccc(C(F)(F)F)cc2)NC1=O)[C@H](C)O (stereo partly drawn) [Compound 2, Acetyl-^DPMI-δ-(6-10 olefinstaple) (D-K9D-Q, D-R12D-S)-NH2] (Ac-[dT][dA][dTrp(6-F)][dY][dA][ξαMeNle(6-ylidene)][dPhe(4-CF3)][dE][dQ][ξαMeNle(6-ylidene)][dL][dS]-NH2; staple (Z) 6-10) | > 50 µM | 9.1 µM | 80% | 30.4 µM | 0.258 µM | > 50 µM | > 50 µM | > 50 µM | 3 fold | 3.6 µM | > 50 µM | – | – | – | – | –
2 | CC(=O)N[C@@H](C(=O)N[C@H](C)C(=O)N[C@H](Cc1c[nH]c2cc(F)ccc12)C(=O)N[C@H](Cc1ccc(O)cc1)C(=O)N[C@H](C)C(=O)NC1(C)CCC/C=C\CCCC(C)(C(=O)N[C@H](CC(C)C)C(=O)N[C@H](CO)C(=O)N[C@H](C)C(=O)N[C@H](C)C(=O)N[C@H](C)C(N)=O)NC(=O)[C@@H](CCC(N)=O)NC(=O)[C@@H](CCC(=O)O)NC(=O)[C@@H](Cc2ccc(C(F)(F)F)cc2)NC1=O)[C@H](C)O.N (stereo partly drawn) [Compound 3, Acetyl-^DPMI-δ-(6-10 olefinstaple) (D-K9D-Q, D-R12D-S, 3x(D-A)polypeptidetail)-NH2] (Ac-[dT][dA][dTrp(6-F)][dY][dA][ξαMeNle(6-ylidene)][dPhe(4-CF3)][dE][dQ][ξαMeNle(6-ylidene)][dL][dS][dA][dA][dA]-NH2; staple (Z) 6-10) | – | – | – | – | 0.0031 µM | > 50 µM | > 50 µM | – | – | 1.44 µM | 4.34 µM | 140 µM | – | – | – | –
3 | CC(=O)N[C@@H](C(=O)N[C@H](C)C(=O)N[C@H](Cc1c[nH]c2cc(F)ccc12)C(=O)N[C@H](Cc1ccc(O)cc1)C(=O)N[C@H](C)C(=O)NC1(C)CCC/C=C\CCCC(C)(C(=O)N[C@H](CC(C)C)C(=O)N[C@H](CO)C(=O)N[C@H](C)C(=O)N[C@H](C)C(=O)N[C@H](C)C(=O)N[C@H](C)C(=O)N[C@H](C)C(=O)N[C@H](C)C(N)=O)NC(=O)[C@@H](CCC(N)=O)NC(=O)[C@@H](CCC(=O)O)NC(=O)[C@@H](Cc2ccc(C(F)(F)F)cc2)NC1=O)[C@H](C)O (stereo partly drawn) [Compound 4, Acetyl-^DPMI-δ-(6-10 olefinstaple) (D-K9D-Q, D-R12D-S, 6x(D-A)polypeptidetail)-NH2] (Ac-[dT][dA][dTrp(6-F)][dY][dA][ξαMeNle(6-ylidene)][dPhe(4-CF3)][dE][dQ][ξαMeNle(6-ylidene)][dL][dS][dA][dA][dA][dA][dA][dA]-NH2; staple (Z) 6-10) | – | 1.48 µM | 84.5%^ | 31.1 µM | 0.0032 µM | > 50 µM | > 50 µM | – | – | 0.61 µM | 0.28 µM | – | greater than 6 fold | 66% | 100 fold | 0.3 µM
4 | CC(=O)N[C@@H](C(=O)N[C@H](C)C(=O)N[C@H](Cc1c[nH]c2cc(F)ccc12)C(=O)N[C@H](Cc1ccc(O)cc1)C(=O)N[C@H](C)C(=O)NC1(C)CCC/C=C\CCCC(C)(C(=O)N[C@H](CC(C)C)C(=O)N[C@H](CO)C(=O)N[C@H](C)C(=O)N[C@H](C)C(=O)N[C@H](C)C(=O)N[C@H](C)C(=O)N[C@H](C)C(=O)N[C@H](C)C(=O)N[C@H](C)C(=O)N[C@H](C)C(=O)N[C@H](C)C(N)=O)NC(=O)[C@@H](CCC(N)=O)NC(=O)[C@@H](CCC(=O)O)NC(=O)[C@@H](Cc2ccc(C(F)(F)F)cc2)NC1=O)[C@H](C)O (stereo partly drawn) [Compound 5, Acetyl- ^DPMI-δ-(6-10 olefinstaple) (D-K9D-Q, D-R12D-S, 9x(D-A)polypeptidetail)-NH2] (Ac-[dT][dA][dTrp(6-F)][dY][dA][ξαMeNle(6-ylidene)][dPhe(4-CF3)][dE][dQ][ξαMeNle(6-ylidene)][dL][dS][dA][dA][dA][dA][dA][dA][dA][dA][dA]-NH2; staple (Z) 6-10) | – | – | – | – | 0.0217 µM | > 50 µM | > 50 µM | – | – | ≥ 50 µM | > 50 µM | 16 µM (≈ 35.7 µg/mL) | – | – | – | –
5 | CC(=O)N[C@@H](C(=O)N[C@H](C)C(=O)N[C@H](Cc1c[nH]c2cc(F)ccc12)C(=O)N[C@H](Cc1ccc(O)cc1)C(=O)N[C@H](C)C(=O)NC1(C)CCC/C=C\CCCC(C)(C(=O)N[C@H](CC(C)C)C(=O)N[C@H](CO)C(=O)N[C@H](C)C(=O)N[C@H](C)C(=O)N[C@H](C)C(=O)N[C@H](CCC(=O)O)C(=O)N[C@H](C)C(=O)N[C@H](C)C(N)=O)NC(=O)[C@@H](CCC(N)=O)NC(=O)[C@@H](CCC(=O)O)NC(=O)[C@@H](Cc2ccc(C(F)(F)F)cc2)NC1=O)[C@H](C)O (stereo partly drawn) [Compound 7, Acetyl-^DPMI-δ-(6-10 olefinstaple) (D-K9D-Q, D-R12D-S, 3x(D-Ala)-(D-Glu)-2x(D-Ala)polypeptidetail)-NH2] (Ac-[dT][dA][dTrp(6-F)][dY][dA][ξαMeNle(6-ylidene)][dPhe(4-CF3)][dE][dQ][ξαMeNle(6-ylidene)][dL][dS][dA][dA][dA][dE][dA][dA]-NH2; staple (Z) 6-10) | – | – | – | – | 0.00043 µM | > 50 µM | > 50 µM | – | – | 1.41 µM | 0.79 µM | – | – | – | – | –
